# From PMC12406203 (Journal of Medicinal Chemistry, 2025)
# Experiments:
# [1] = test system: ABL1(E255K)-phosphorylated
# [2] = test system: CDK2
# [3] = test system: CSNK1D
# [4] = test system: ERK 2
# [5] = test system: FAK
# [6] = test system: FGFR2
# [7] = test system: FLT3
# [8] = test system: IKKα
# [9] = test system: JNK2
# [10] = test system: MARK3
# [11] = test system: MEK2
# [12] = test system: MET
# [13] = test system: MKNK2
# [14] = test system: MLK1
# [15] = test system: PRKCE
# [16] = test system: BV2 cells; assay: MTS metabolic activity (cytotoxicity); format: cell-based, murine; details: BV2, MTS assay, 24 h, concentrations of 5 μM or less
# Protocol: The human hepatocellular carcinoma HepG2 and human neuroblastoma SH-SY5Y cell lines were purchased from American Type Culture Collection (Manassas, VA, USA). The murine microglia BV2 cells were a generous gift from Dr. Biljana Božić Nedeljković (University of Belgrade, Belgrade, Serbia). Cells were cultured in Advanced Dulbecco’s modified Eagle’s medium (Gibco, Thermo Fisher Scientific, Waltham, MA, USA) supplemented with 10% fetal bovine serum (FBS, Gibco), 2 mM L-glutamine, 50 U/mL penicillin and 50 μg/mL streptomycin (Sigma, St. Louis, MO, USA) in a humidified atmosphere of 95% air and 5% CO2 at 37 °C, and grown to 80% confluence. Prior to cell treatment, complete medium was replaced with serum-free medium. […]
# BV2 cells (5 × 10^3/well) and HepG2 and SH-SY5Y cells (1 × 10^4/well) were seeded in 96-well plates and assessed by MTS ([3-(4,5-dimethylthiazol-2-yl)-5-(3-carboxymethoxyphenyl)-2-(4-sulfophenyl)-2H tetrazolium, inner salt) assay for their response to compounds 94 and 95. Cells were treated with increasing concentrations of compounds (1–100 μM) in serum-free medium, and metabolic activity was assessed after 24 h using the CellTiter 96 Aqueous One Solution Cell Proliferation Assay (Promega, Madison, WI, USA), in accordance with the manufacturer’s instructions. Absorbance was measured with an automatic microplate reader (Tecan Safire^2, Switzerland) at a wavelength of 492 nm. […]
# [17] = test system: LPS-treated mice; assay: Morris water maze task, LPS model of neuroinflammation; format: in vivo; details: 10 mg/kg i.p.; for escape latency, acquisition phase (days 1–6) of MWM: from day 2 (94) or day 3 (95) to day 6, vs LPS alone
# Protocol: The compounds were administered for 10 consecutive days, and on the last 6 days of their administration, LPS was also administered intraperitoneally 5 h before the test compounds. On these 6 days, the acquisition phase of the MWM task was performed. One day later, the retention, drug-off trial of the MWM task was carried out.
# In the LPS model adult male C57BL/6J mice (Animal Breeding Farm of the Faculty of Pharmacy, Jagiellonian University Medical College) of similar weight and age were used. […] The mice had unlimited access to food and water prior to the experiment. Specified conditions for the maintenance of mice were ensured throughout the experiment, including tree bedding (Transwior, Poland) and cage enrichment (tunnels, nesting material, wooden igloos, etc.). For behavioral tests, the mice were selected randomly; each group consisted of 7–10 mice. […] After in vivo tests, the animals were immediately euthanized, and their tissues were collected and stored for further ex vivo testing.
# LPS (Lipopolysaccharide from Escherichia coli O111:B4, Sigma-Aldrich, Poland) was used to induce neuroinflammation in mice. […] They were administered intraperitoneally (i.p.) 60 min before the acquisition trial of the PA, NOR, and MWM tasks. […] In the rotarod, locomotor activity, and MWM tests, only one dose effective in the scopolamine model of amnesia was evaluated.
# The Morris water maze is a circular, plastic, and gray-painted pool (120 cm in diameter and 60 cm in height), filled with water (up to about 48 cm below the edge to prevent an animal from jumping out), maintained at 23 ± 1 °C. The pool was divided into four equal quadrants (compass locations: NE, NW, SE, SW) by a computerized video tracking system (SMART, ver. 3.0; Panlab, Spain). An escape platform (11 cm in diameter and 47 cm in height) at a fixed location (the center of the NW quadrant, i.e., the target quadrant) was made of transparent Plexiglas, being invisible to the swimming animal, and was immersed 1 cm under the surface of water. The maze was lighted with an intensity of 45 lx. […] The time taken to reach the hidden platform (escape latency) on days 1–6 was recorded for each mouse and analyzed. Each animal was released from a different starting point and was allowed to swim for 60 s. […] On the seventh day (a drug-off trial conducted 24 h after the last training trial), the platform was removed from the pool, and a probe trial was performed (without drug treatmentassessment of memory retention).
# [18] = test system: TLR4, COX-2, NLRP3, cPLA2 levels in brains of LPS-treated mice; assay: Western blot of brains of LPS-treated mice (ex vivo); format: in vivo; details: 94, 95: 10 mg/kg i.p.; rivastigmine 1 mg/kg i.p.; vs LPS-treated control
# Protocol: After the completion of cognitive assays carried out in the LPS model, the mice were sacrificed, and their brains were collected and stored for further analysis. In the ex vivo part of the study, murine brains were homogenized using T-PER mammalian protein extraction reagent (Thermo Fisher Scientific, Waltham, MA, USA) with protease (Merck Millipore, Burlington, MA, USA) and phosphatase inhibitors (Cayman Chemical, Ann Arbor, MI, USA). The total protein concentrations were determined using the Bradford reaction. Forty μg of the total proteins were solubilized in Laemmli buffer with 2% 2-mercaptoethanol and were subject to 10% SDS-polyacrylamide gel electrophoresis. The anticyclooxygenase 2 (COX-2, diluted 1:1000), antitoll-like receptor 4 (TLR4, diluted 1:1000), anticytosolic phospholipase A2 (cPLA2, 1:1000), and anti-inflammasome (NLPR3, diluted 1:500) were used (Thermo Fisher Scientific, Waltham, MA, USA). The endogenous control was β-actin (1:1000) (Thermo Fisher Scientific, Waltham, MA, USA). The secondary antibody was antirabbit IgG (HRP) diluted 1:2000 (Thermo Fisher Scientific, Waltham, MA, USA). Proteins were detected using the Clarity Western ECL Luminol Substrate (Bio-Rad, Hercules, CA, USA). Chemi Doc Camera with Image Lab 6.1 software (Bio-Rad) was used to quantify the integrated optical density of the bands. The results were normalized to the data obtained for β-actin after stripping the PVDF membrane using Restore Western Blot Stripping Buffer (Thermo Fisher Scientific, Waltham, MA, USA) and expressed as relative to the control. This thorough process ensures the validity and reliability of the results.
Structure (SMILES),RA @ 1000nM [1],RA @ 10000nM [1],RA @ 1000nM [2],RA @ 10000nM [2],RA @ 1000nM [3],RA @ 10000nM [3],RA @ 1000nM [4],RA @ 10000nM [4],RA @ 1000nM [5],RA @ 10000nM [5],RA @ 1000nM [6],RA @ 10000nM [6],RA @ 1000nM [7],RA @ 10000nM [7],RA @ 1000nM [8],RA @ 10000nM [8],RA @ 1000nM [9],RA @ 10000nM [9],RA @ 1000nM [10],RA @ 10000nM [10],other results
"CN(C)CCNC(=O)c1cc2c(cnn2CC2CCCCC2)cc1Cc1ccc(F)cc1F [Compound 95, 1-(Cyclohexylmethyl)-5-(2,4-difluorobenzyl)-N-(2-(dimethylamino)ethyl)-1H-indazole-6-carboxamide]",96%,93%,99%,100%,93%,84%,100%,100%,92%,94%,100%,100%,100%,100%,92%,75%,44%,3.8%,79%,86%,"RA @ 1000nM [11]: 95%; RA @ 10000nM [11]: 100%; RA @ 1000nM [12]: 100%; RA @ 10000nM [12]: 100%; RA @ 1000nM [13]: 81%; RA @ 10000nM [13]: 67%; RA @ 1000nM [14]: 100%; RA @ 10000nM [14]: 90%; RA @ 1000nM [15]: 79%; RA @ 10000nM [15]: 76%; cell viability [16]: did not affect cell viability; escape latency, acquisition phase (days 1–6) of MWM [17]: statistically significant decrease in escape latency; latency to NW zone entry (MWM day 7, drug-off) ([17]; vs LPS-treated control, p < 0.05): statistically significant difference; brain cPLA2 expression [18]: no difference; brain levels of TLR4, COX-2, and NLRP3 [18]: significantly lower levels"
"CC(C)Cn1ncc2cc(Cc3ccc(F)cc3F)c(C(=O)NCCN(C)C)cc21 [Compound 94, 5-(2,4-Difluorobenzyl)-N-(2-(dimethylamino)ethyl)-1-isobutyl-1H-indazole-6-carboxamide]",96%,55%,82%,97%,86%,79%,100%,98%,96%,89%,95%,100%,100%,90%,82%,87%,52%,8.3%,100%,100%,"RA @ 1000nM [11]: 86%; RA @ 10000nM [11]: 80%; RA @ 1000nM [12]: 96%; RA @ 10000nM [12]: 100%; RA @ 1000nM [13]: 76%; RA @ 10000nM [13]: 80%; RA @ 1000nM [14]: 100%; RA @ 10000nM [14]: 100%; RA @ 1000nM [15]: 80%; RA @ 10000nM [15]: 80%; cell viability [16]: did not affect cell viability; escape latency, acquisition phase (days 1–6) of MWM [17]: statistically significant decrease in escape latency from day 2; brain cPLA2 expression [18]: no difference; brain levels of TLR4, COX-2, and NLRP3 [18]: significantly lower levels"
